Our source for the EC50 values is US10000512B2, “Compounds for the treatment of infectious diseases” (Hoffmann-La Roche Inc., priority 2014, dated 2018).

The target of experiment [1] is T1, human TLR7 (Homo sapiens, UniProt Q9NYK1).
T1 sequence (Q9NYK1 27-1049): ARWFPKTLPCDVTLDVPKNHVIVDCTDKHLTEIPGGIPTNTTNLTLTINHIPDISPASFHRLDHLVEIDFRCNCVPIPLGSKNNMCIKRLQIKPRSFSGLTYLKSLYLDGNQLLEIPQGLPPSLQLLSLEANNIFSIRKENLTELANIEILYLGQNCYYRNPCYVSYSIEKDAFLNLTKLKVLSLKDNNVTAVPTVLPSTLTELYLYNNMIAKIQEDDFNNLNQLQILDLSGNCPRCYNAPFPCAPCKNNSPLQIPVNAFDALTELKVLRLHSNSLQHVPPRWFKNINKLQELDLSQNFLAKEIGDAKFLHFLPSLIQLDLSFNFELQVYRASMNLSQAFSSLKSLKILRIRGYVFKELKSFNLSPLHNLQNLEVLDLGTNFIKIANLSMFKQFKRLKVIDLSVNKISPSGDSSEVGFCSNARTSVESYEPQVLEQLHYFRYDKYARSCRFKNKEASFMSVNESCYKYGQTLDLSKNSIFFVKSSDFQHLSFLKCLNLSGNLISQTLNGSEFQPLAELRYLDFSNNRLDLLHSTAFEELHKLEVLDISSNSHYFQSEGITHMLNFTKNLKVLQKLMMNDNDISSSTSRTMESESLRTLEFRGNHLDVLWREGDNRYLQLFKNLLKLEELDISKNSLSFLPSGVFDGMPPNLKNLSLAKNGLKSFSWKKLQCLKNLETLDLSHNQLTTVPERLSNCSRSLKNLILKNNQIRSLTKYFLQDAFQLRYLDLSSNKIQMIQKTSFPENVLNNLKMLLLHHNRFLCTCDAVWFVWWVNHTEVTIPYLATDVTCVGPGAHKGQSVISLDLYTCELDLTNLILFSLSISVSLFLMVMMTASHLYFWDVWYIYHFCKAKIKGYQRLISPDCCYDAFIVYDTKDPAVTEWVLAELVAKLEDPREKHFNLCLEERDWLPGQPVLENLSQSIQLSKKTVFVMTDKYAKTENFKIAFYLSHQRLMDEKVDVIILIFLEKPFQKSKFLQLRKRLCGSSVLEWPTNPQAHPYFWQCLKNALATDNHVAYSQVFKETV
Kind of experiment: HEK293-Blue-hTLR-7 cells assay (SEAP reporter). Conditions: 20 hours incubation. In kind it is cell-based. The source says: A stable HEK293-Blue-hTLR-7 cell line was purchased from InvivoGen (Cat.#: hkb-ht1r7, San Diego, Calif., USA). These cells were designed for studying the stimulation of human TLR7 by monitoring the activation of NF-κB. A SEAP (secreted embryonic alkaline phosphatase) reporter gene was placed under the control of the IFN-β minimal promoter fused to five NF-κB and AP-1-binding sites. The SEAP was induced by activating NF-κB and AP-1 via stimulating HEK-Blue hTLR7 cells with TLR7 ligands. Therefore the reporter expression was regulated by the NF-κB promoter upon stimulation of human TLR7 for 20 hours. The cell culture supernatant SEAP reporter activity was determined using QUANTI-Blue™ kit (Cat.#: rep-qb1, Invivogen, San Diego, Calif., USA) at a wavelength of 640 nm, a detection medium that turns purple/blue in the presence of alkaline phosphatase.
HEK293-Blue-hTLR7 cells were incubated at a density of 250,000˜450,000 cells/mL in a volume of 180 μL in a 96-well plate in Dulbecco's Modified Eagle's medium (DMEM) containing 4.5 g/L glucose, 50 U/mL penicillin, […] streptomycin, […] Normocin, 2 mM L-glutamine, 10% (v/v) heat-inactivated fetal bovine serum for 24 h. Then the HEK293-Blue-hTLR-7 cells were incubated with addition of 20 μL test compound in a serial dilution in the presence of final DMSO at 1% and perform incubation under 37° C. in a CO2 incubator for 20 hours. Then 20 μL of the supernatant from each well was incubated with 180 μL Quanti-blue substrate solution at 37° C. for 2 h and the absorbance was read at 620˜655 nm using a spectrophotometer. The signalling pathway that TLR7 activation leads to downstream NF-κB activation has been widely accepted, and therefore similar reporter assay was also widely used for evaluating TLR7 agonist (Tsuneyasu Kaisho and Takashi Tanaka, Trends in Immunology, Volume 29, Issue 7, July 2008, […]; Hiroaki Hemmi et al, Nature Immunology 3, 196-200 (2002).

Experiment [2] has as its target T2, murine TLR7 (Mus musculus, UniProt P58681).
T2 sequence (P58681 27-1050): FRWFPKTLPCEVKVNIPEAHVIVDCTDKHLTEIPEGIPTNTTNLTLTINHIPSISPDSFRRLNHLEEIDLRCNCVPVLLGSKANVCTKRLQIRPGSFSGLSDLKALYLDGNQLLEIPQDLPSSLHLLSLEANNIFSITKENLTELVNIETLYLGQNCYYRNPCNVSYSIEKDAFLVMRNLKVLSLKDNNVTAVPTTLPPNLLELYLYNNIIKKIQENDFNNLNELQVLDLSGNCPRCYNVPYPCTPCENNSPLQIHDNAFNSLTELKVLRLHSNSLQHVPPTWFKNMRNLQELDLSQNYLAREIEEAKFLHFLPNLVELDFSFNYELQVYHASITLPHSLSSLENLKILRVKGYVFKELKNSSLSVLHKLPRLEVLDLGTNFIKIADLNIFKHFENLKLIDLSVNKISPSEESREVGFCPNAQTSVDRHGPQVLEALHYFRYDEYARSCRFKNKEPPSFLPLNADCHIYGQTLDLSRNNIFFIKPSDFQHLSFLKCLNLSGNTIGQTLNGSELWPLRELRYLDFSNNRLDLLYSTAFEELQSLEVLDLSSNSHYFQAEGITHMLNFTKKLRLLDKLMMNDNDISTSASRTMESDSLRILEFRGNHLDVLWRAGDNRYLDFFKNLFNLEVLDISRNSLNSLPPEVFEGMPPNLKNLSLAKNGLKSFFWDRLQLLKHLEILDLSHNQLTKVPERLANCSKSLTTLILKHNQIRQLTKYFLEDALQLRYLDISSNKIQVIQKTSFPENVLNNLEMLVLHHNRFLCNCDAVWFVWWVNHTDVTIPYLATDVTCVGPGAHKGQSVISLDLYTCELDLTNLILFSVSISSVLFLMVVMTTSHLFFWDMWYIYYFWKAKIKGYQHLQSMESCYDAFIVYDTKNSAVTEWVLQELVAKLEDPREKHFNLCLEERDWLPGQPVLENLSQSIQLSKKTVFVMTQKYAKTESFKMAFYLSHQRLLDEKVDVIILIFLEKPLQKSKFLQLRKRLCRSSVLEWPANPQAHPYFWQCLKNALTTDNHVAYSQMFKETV
Kind of experiment: HEK293-Blue-mTLR7 assay (SEAP reporter). Format: cell-based. Conditions: HEK293-Blue-mTLR7 cells, 20 hours, Quanti-Blue; read-out: EC50 murine TLR7 activation. Here is the method:
The potency of the TLR7 agonist Example 4-A was assessed in murine TLR7 activation using a stable HEK293-Blue-mTLR7 cell line purchased from InvivoGen (Cat.#: hkb-mt1r7, San Diego, Calif., USA). Similar to the HEK293-Blue-hTLR7 as described in Example 26, the HEK293-Blue-mTLR7 was designed for studying the stimulation of murine TLR7 by monitoring the activation of NF-κB. A SEAP reporter gene was placed under the control of the IFN-β minimal promoter fused to five NF-κB and AP-1-binding sites. SEAP expression was induced by the activation of NF-κB and AP-1 upon stimulation of murine TLR7 with TLR7 ligands. SEAP expression in cell culture supernatant was determined using QUANTI-Blue™ kit (Cat.#: rep-qb1, Invivogen, San Diego, Ca, USA) at a wavelength of 640 nm, a detection medium that turns purple/blue in the presence of alkaline phosphatase.
HEK293-Blue-mTLR7 cells were incubated at a density of 250,000˜450,000 cells/mL in a volume of 180 μL in a 96-well plate in Dulbecco's Modified Eagle's medium (DMEM) containing 4.5 g/L glucose, 50 U/mL penicillin, […], […], 2 mM L-glutamine, 10% (v/v) heat-inactivated fetal bovine serum for 24 h. […] Then 20 μL of the supernatant from each well was incubated with 180 μl Quanti-blue substrate solution at 37° C. for 2 hours and the absorbance was read at 640 nm using a spectrophotometer.

In general, EC50 refers to the concentration at which the effect is half-maximal. In the case of `Nc1nc2c(sc(=O)n2[C@H]2CS[C@@H](C(O)C3CC3)O2)c(=O)[nH]1` (single isomer, unassigned) [Example 4-A], the EC50 in experiment [1] stood at 7.9 µM; in experiment [2], 7.8 µM.
